# Read-outs that look alike come from different tables or passages of the source.
# What was measured:
# [1] = test system: BaF3 PIM1 cells; test: In vitro cell proliferation potency assay (Cell Titer Glo), BaF3 PIM1 cells; type: cell-based, murine; conditions: read-out: Prolif BaF3_PIM 1 (IC50)
# Protocol: BaF3 parental line was obtained from the DSMZ repository. BaF3 lines transfected with PIM1 or PIM2 were generated. Mouse IL-3 was purchased from R&D Systems. G418 was purchased from Clontech. Media for BaF3 parental line contained RPMI, 10% FBS, 2 mM L-Glutamine, 2 ng/mL mIL-3. Media for BaF3 PIM1 & 2 lines contained RPMI, 10% FBS, 2 mM L-Glutamine, […]. Media for MM1.S (multiple myeloma cells) line contained RPMI, 10% FBS, 2 mM L-Glutamine.
# BaF3, a murine interleukin-3 dependent pro-B cell line, parental cells, BaF3 PIM1 cells, BaF3 PIM2 cells, and MM1.S (multiple myeloma) cells were seeded at 2 k/well, 5 k/well, 5 k/well, and 10 k/well respectively, in a 384-well plate, at 45 μL/well. Test compound was added at 5 μL/well. BaF3 cells (parental and transfected) were incubated overnight, while MM1.S cells were incubated for 72 hours at 37° C., 5% CO2. CELL TITER GLO® Reagent (Promega) was added at 50 μL/well, the plates were incubated for 30 minutes, and their luminescence read on an HT Analyst. IC50/EC50 values for the test compound were calculated.
# [2] = target: PIM2 (Homo sapiens (Human), UniProt Q9P1W9); test: Pim kinase binding activity, Caliper LC3000 microfluidic peptide phosphorylation assay, PIM2; type: biochemical; conditions: 10 μM ATP, 90 min, room temperature; read-out: PIM2 LC3K (KI)
# Outline: (§1)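 Pim-specific fluorescent peptide phosphorylated in 10 mM HEPES pH 7.2, 10 mM MgCl2, 0.01% Tween 20, 2 mM DTT for 90 min at room temperature, then stopped with EDTA. Product and substrate separated by microfluidic mobility shift; Ki derived from substrate conversion.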
# [3] = target: PIM3 (Homo sapiens (Human), UniProt Q86V86); test: Pim kinase binding activity, Caliper LC3000 microfluidic peptide phosphorylation assay, PIM3; type: biochemical; conditions: 10 μM ATP, 90 min, room temperature; read-out: PIM3 LC3K (KI)
# Outline: as §1
# [4] = target: PIM1 (Homo sapiens (Human), UniProt P11309); test: biochemical; type: biochemical; conditions: 10 μM ATP, 90 min, room temperature; read-out: PIM1 LC3K (KI)
# Outline: as §1
# [5] = Mus musculus, BaF3, BaF3 cells transfected with PIM1, incubated overnight
# Sequence of PIM2 (Q9P1W9 whole entry): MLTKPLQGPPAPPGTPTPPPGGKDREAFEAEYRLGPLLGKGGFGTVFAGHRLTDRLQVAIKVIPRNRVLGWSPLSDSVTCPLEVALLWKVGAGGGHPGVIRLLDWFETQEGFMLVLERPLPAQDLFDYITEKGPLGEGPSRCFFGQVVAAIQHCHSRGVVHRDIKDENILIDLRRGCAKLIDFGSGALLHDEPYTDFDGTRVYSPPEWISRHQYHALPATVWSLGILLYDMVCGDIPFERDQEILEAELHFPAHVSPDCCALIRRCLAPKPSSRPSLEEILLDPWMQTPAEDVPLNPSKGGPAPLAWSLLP
# Sequence of PIM1 (P11309 whole entry): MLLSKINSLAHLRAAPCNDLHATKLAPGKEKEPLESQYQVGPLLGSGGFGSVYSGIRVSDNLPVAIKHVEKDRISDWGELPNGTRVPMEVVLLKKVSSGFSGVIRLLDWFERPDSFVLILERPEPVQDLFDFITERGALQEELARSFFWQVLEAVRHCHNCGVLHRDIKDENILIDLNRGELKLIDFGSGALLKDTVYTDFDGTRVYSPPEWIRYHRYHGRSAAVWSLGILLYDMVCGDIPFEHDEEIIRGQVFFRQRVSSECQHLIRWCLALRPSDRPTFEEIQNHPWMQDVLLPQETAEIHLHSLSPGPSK
Structure (SMILES),"IC50 [1, 5]",Ki [2],Ki [3],Ki [4],"IC50 ([1]; BaF3 cells transfected with PIM1, incubated overnight)"
"CCc1cncc(-c2cc3c(cn2)cnn3-c2cccc(N3CCNCC(O)C3)n2)n1 (stereo not shown) [Compound 172, 1-[6-[6-(6-ethylpyrazin-2-yl)pyrazolo[4,3-c]pyridin-1-yl]-2-pyridyl]-1 4-diazepan-6-ol]",111 nM,1.47 nM,0.048 nM,0.034 nM,
"CCn1cc(-c2cc3c(cn2)cnn3-c2cccc(N3CCC[C@H](N)C3)n2)cn1 [Compound 133, (3S)-1-[6-[6-(1-ethylpyrazol-4-yl)pyrazolo[4,3-c]pyridin-1-yl]-2-pyridyl]piperidin-3-amine]",3000 nM,4.56 nM,0.155 nM,0.867 nM,
"Cc1cncc(-c2cc3c(cn2)cnn3-c2cccc(N3CCC[C@H](O)C3)n2)n1 [Compound 299, (S)-1-(6-(6-(6-methylpyrazin-2-yl)-1H-pyrazolo[4,3-c]pyridin-1-yl)pyridin-2-yl)piperidin-3-ol]",1600 nM,4.17 nM,0.248 nM,0.419 nM,
"Cc1cncc(-c2cc3c(cn2)cnn3-c2cccc(N3CCC4(CCCN4)CC3)n2)n1 [Compound 216, 8-[6-[6-(6-methylpyrazin-2-yl)pyrazolo[4,3-c]pyridin-1-yl]-2-pyridyl]-1 8-diazaspiro[4.5]decane]",715 nM,2.95 nM,0.094 nM,0.223 nM,
"Cc1cncc(-c2cc3c(cn2)cnn3-c2cccc(N3C[C@@H](N)C[C@H](F)C3)n2)n1 [Compound 192, (3S,5S)-5-fluoro-1-[6-[6-(6-methylpyrazin-2-yl)pyrazolo[4,3-c]pyridin-1-yl]-2-pyridyl]piperidin-3-amine]",1700 nM,3.35 nM,0.21 nM,0.428 nM,
"COc1cncc(-c2cc3c(cn2)cnn3-c2cccc(N3CCNCC3)n2)n1 [Compound 130, 6-(6-methoxypyrazin-2-yl)-1-(6-piperazin-1-yl-2-pyridyl)pyrazolo[4,3-c]pyridine]",1500 nM,1.87 nM,0.068 nM,0.113 nM,
"Cc1cncc(-c2cc3c(cn2)cnn3-c2cccc(N3CCNC(C)C3)n2)n1 (single isomer, unassigned) [Compound 193, 1-[6-(3-methylpiperazin-1-yl)-2-pyridyl]-6-(6-methylpyrazin-2-yl)pyrazolo[4,3-c]pyridine]",,0.596 nM,0.035 nM,0.046 nM,1200 nM
"Cc1cc(-c2cc3c(cn2)cnn3-c2cccc(N3CCC[C@H](N)C3)n2)sn1 [Compound 124, (3S)-1-[6-[6-(3-methylisothiazol-5-yl)pyrazolo[4,3-c]pyridin-1-yl]-2-pyridyl]piperidin-3-amine]",804 nM,3.48 nM,0.14 nM,0.71 nM,
"Cc1cncc(-c2cc3c(cn2)cnn3-c2cccc(N3CCNC(C)C3)n2)n1 (stereo not shown) [Compound 169, 1-[6-(3-methylpiperazin-1-yl)-2-pyridyl]-6-(6-methylpyrazin-2-yl)pyrazolo[4,3-c]pyridine]",457 nM,1.79 nM,0.164 nM,0.228 nM,
"Cc1cncc(-c2cc3c(cn2)cnn3-c2ccc(C3CC3)c(N3CCCNCC3)n2)n1 [Compound 197, 1-(5-cyclopropyl-6-(1,4-diazepan-1-yl)pyridin-2-yl)-6-(6-methylpyrazin-2-yl)-1H-pyrazolo[4,3-c]pyridine]",2200 nM,1.22 nM,0.046 nM,0.055 nM,
"FC(F)(F)Cn1cc(-c2cc3c(cn2)cnn3-c2cncc(N3CCCNCC3)n2)cn1 [Compound 178, 1-(6-(1,4-Diazepan-1-yl)pyrazin-2-yl)-6-(1-(2,2,2-trifluoroethyl)-1H-pyrazol-4-yl)-1H-pyrazolo[4,3-c]pyridine]",549 nM,6.68 nM,1.35 nM,0.386 nM,
"Cc1cncc(-c2cc3c(cn2)cnn3-c2cccc(N3CCC[C@H](N)C3)n2)n1 [Compound 137, (3S)-1-[6-[6-(6-methylpyrazin-2-yl)pyrazolo[4,3-c]pyridin-1-yl]-2-pyridyl]piperidin-3-amine]",2100 nM,0.499 nM,0.038 nM,0.159 nM,
"Cc1cncc(-c2cc3c(cn2)cnn3-c2cnc(C)c(N3CCC[C@H](N)C3)n2)n1 [Compound 228, (3S)-1-[3-methyl-6-[6-(6-methylpyrazin-2-yl)pyrazolo[4,3-c]pyridin-1-yl]pyrazin-2-yl]piperidin-3-amine]",778 nM,0.724 nM,0.047 nM,0.074 nM,
c1cc(N2CCCNCC2)nc(-n2ncc3cnc(-c4cncc(C5CC5)c4)cc32)c1 [Compound 112],490 nM,3.87 nM,0.093 nM,0.038 nM,
"N[C@@H]1CCCN(c2cccc(-n3ncc4cnc(-c5cncs5)cc43)n2)C1 [Compound 110, (3R)-1-[6-(6-thiazol-5-ylpyrazolo[4,3-c]pyridin-1-yl)-2-pyridyl]piperidin-3-amine]",1700 nM,4.5 nM,0.37 nM,0.504 nM,
"CCc1cncc(-c2cc3c(cn2)cnn3-c2ccc(Cl)c(N3CCC[C@H](N)C3)n2)c1 [Compound 117, (S)-1-(3-chloro-6-(6-(5-ethylpyridin-3-yl)-1H-pyrazolo[4,3-c]pyridin-1-yl)pyridin-2-yl)piperidin-3-amine]",2900 nM,1.03 nM,0.098 nM,0.141 nM,
"CC(C)(C)n1cc(-c2cc3c(cn2)cnn3-c2cccc(N3CCCNCC3)n2)cn1 [Compound 145, 1-(6-(1,4-Diazepan-1-yl)pyridin-2-yl)-6-(1-tert-butyl-1H-pyrazol-4-yl)-1H-pyrazolo[4,3-c]pyridine]",2500 nM,10.5 nM,0.636 nM,0.362 nM,
"O[C@@H]1CNCCN(c2cccc(-n3ncc4cnc(-c5cnn(CC(F)(F)F)c5)cc43)n2)C1 [Compound 188, (R)-1-(6-(6-(1-(2,2,2-Trifluoroethyl)-1H-pyrazol-4-yl)-1H-pyrazolo[4,3-c]pyridin-1-yl)-pyridin-2-yl)-1,4-diazepan-6-ol]",418 nM,4.64 nM,0.611 nM,0.173 nM,
"O[C@H]1CNCCN(c2cccc(-n3ncc4cnc(-c5cnn(CC(F)(F)F)c5)cc43)n2)C1 [Compound 189, (S)-1-(6-(6-(1-(2,2,2-Trifluoroethyl)-1H-pyrazol-4-yl)-1H-pyrazolo[4,3-c]pyridin-1-yl)-pyridin-2-yl)-1,4-diazepan-6-ol]",181 nM,0.373 nM,0.089 nM,0.038 nM,
"Cc1cncc(-c2cc3c(cn2)cnn3-c2cccc(N3CCC[C@@H](O)C3)n2)n1 [Compound 298, (R)-1-(6-(6-(6-methylpyrazin-2-yl)-1H-pyrazolo[4,3-c]pyridin-1-yl)pyridin-2-yl)piperidin-3-ol]",1600 nM,2.68 nM,0.396 nM,0.854 nM,
"Cc1cncc(-c2cc3c(cn2)cnn3-c2cccc(N3CCC(N)CC3)n2)n1 [Compound 194, 1-[6-[6-(6-methylpyrazin-2-yl)pyrazolo[4,3-c]pyridin-1-yl]-2-pyridyl]piperidin-4-amine]",1500 nM,3.12 nM,0.125 nM,0.243 nM,
"Cc1cncc(-c2cc3c(cn2)cnn3-c2cccc(N3C[C@@H](N)C[C@@H](F)C3)n2)n1 [Compound 198, (3S,5R)-5-fluoro-1-[6-[6-(6-methylpyrazin-2-yl)pyrazolo[4,3-c]pyridin-1-yl]-2-pyridyl]piperidin-3-amine]",1100 nM,2.55 nM,0.089 nM,0.117 nM,
"c1cc(N2CCNCC2)nc(-n2ncc3cnc(-c4cncs4)cc32)c1 [Compound 109, 5-[1-(6-piperazin-1-yl-2-pyridyl)pyrazolo[4,3-c]pyridin-6-yl]thiazole]",1500 nM,4.03 nM,0.285 nM,0.476 nM,
"Cc1cncc(-c2cc3c(cn2)cnn3-c2cccc(NC3CCNCC3)n2)n1 [Compound 190, 6-[6-(6-methylpyrazin-2-yl)pyrazolo[4,3-c]pyridin-1-yl]-N-(4-piperidyl)pyridin-2-amine]",235 nM,1.28 nM,0.023 nM,0.06 nM,
"c1cc(N2CCNCC2)nc(-n2ncc3cnc(-c4cncc(C5CC5)n4)cc32)c1 [Compound 165, 6-(6-cyclopropylpyrazin-2-yl)-1-(6-piperazin-1-yl-2-pyridyl)pyrazolo[4,3-c]pyridine]",139 nM,1.14 nM,0.174 nM,0.063 nM,

# — patent US9434725B2, “5-azaindazole compounds and methods of use” (priority 2012, dated 2016)
